Substitutions are numbered along the chain they refer to.
Legend:
[1] = system: ACHN; experiment: NCI 60 antitumor screening (single dose / five doses); type: cell-based; conditions: Homo sapiens; for inhibition at 10 µM: ACHN (renal cancer), single dose 10 μM, read-out: Growth inhibition percentage (GI %); for GI50: ACHN, five doses (0.01–100 μM), read-out: GI50
[2] = system: UACC-257; experiment: as above; type: cell-based; conditions: Homo sapiens; for inhibition at 10 µM: UACC-257 (melanoma), single dose 10 μM, read-out: Growth inhibition percentage (GI %); for GI50: UACC-257, five doses (0.01–100 μM), read-out: GI50
[3] = system: SNB-75; experiment: as above; type: cell-based; conditions: Homo sapiens; for inhibition at 10 µM: SNB-75 (CNS cancer), single dose 10 μM, read-out: Growth inhibition percentage (GI %); for GI50: SNB-75, five doses (0.01–100 μM), read-out: GI50
[4] = system: HT29; experiment: as above; type: cell-based, human; conditions: Homo sapiens; for inhibition at 10 µM: HT-29, HT29 (colon cancer), single dose 10 μM, read-out: Growth inhibition percentage (GI %); for GI50: HT-29, HT29, five doses (0.01–100 μM), read-out: GI50
[5] = target: T1, wild type IDH2 (Homo sapiens, UniProt P48735); experiment: IDH2 enzyme inhibition assay (wild type IDH Assay Kit)
T1 sequence (P48735 40-452): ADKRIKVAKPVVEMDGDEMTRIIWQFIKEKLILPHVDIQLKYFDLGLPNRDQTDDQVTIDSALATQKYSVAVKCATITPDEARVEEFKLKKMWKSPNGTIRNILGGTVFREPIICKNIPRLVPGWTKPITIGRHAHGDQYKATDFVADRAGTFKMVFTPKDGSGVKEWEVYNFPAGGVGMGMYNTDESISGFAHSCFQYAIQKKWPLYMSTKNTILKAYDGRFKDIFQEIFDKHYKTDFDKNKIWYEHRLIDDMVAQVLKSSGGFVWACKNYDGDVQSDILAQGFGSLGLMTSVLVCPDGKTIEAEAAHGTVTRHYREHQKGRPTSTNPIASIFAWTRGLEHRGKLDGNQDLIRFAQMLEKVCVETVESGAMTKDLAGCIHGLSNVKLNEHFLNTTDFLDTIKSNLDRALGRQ

[6] = target: T2, IDH2^R140Q (Homo sapiens, UniProt P48735, R140Q); experiment: biochemical
T2 sequence (P48735 40-452 R140Q): T1 sequence (P48735 40-452) with R101Q

[7] = system: K-562; experiment: NCI 60 antitumor screening (single dose / five doses); type: cell-based; conditions: Homo sapiens, K562; for inhibition at 10 µM: K-562 (leukaemia), single dose 10 μM, read-out: Growth inhibition percentage (GI %); for GI50: K-562, five doses (0.01–100 μM), read-out: GI50
[8] = system: MALME-3M; experiment: as above; type: cell-based; conditions: Homo sapiens; for inhibition at 10 µM: MALME-3M (melanoma), single dose 10 μM, read-out: Growth inhibition percentage (GI %); for GI50: MALME-3M, five doses (0.01–100 μM), read-out: GI50

Compound | inhibition at 10 µM [1] [%] | inhibition at 10 µM [2] [%] | inhibition at 10 µM [3] [%] | inhibition at 10 µM [4] [%] | IC50 [5] [nM] | IC50 [6] [nM] | inhibition at 10 µM [7] [%] | inhibition at 10 µM [8] [%] | GI50 [1] [nM] | GI50 [2] [nM] | GI50 [3] [nM] | GI50 [4] [nM] | GI50 [7] [nM] | GI50 [8] [nM]
Fc1cccc(/C=N/Nc2nc(N/N=C/c3cccc(F)c3)nc(N3CCCCC3)n2)c1 [compound 7e, 2,4-Bis[(E)-2-[(3-Fluorophenyl)methylidene]hydrazin-1-yl]-6-(piperidin-1-yl)-1,3,5-triazine] | 8.6 | -0.08 | -14.6 | 8.7 | 5070 ± 200 | 176 ± 8.6 | 38.6 | -0.5 |  |  |  |  |  | 
Clc1cccc(/C=N/Nc2nc(N/N=C/c3cccc(Cl)c3)nc(N3CCCCC3)n2)c1 [compound 7d, 2,4-Bis[(E)-2-[(3-Chlorophenyl)methylidene]hydrazin-1-yl]-6-(piperidin-1-yl)-1,3,5-triazine] | -1.44 | -11.1 | -2.48 | 14.4 |  | 370 ± 18 | 17 | -9.06 |  |  |  |  |  | 
Clc1cccc(/C=N/Nc2nc(N/N=C/c3cccc(Cl)c3)nc(N3CCOCC3)n2)c1 [compound 6d, 2,4-Bis[(E)-2-[(3-chlorophenyl)methylidene]hydrazin-1-yl]-6-(morpholin-4-yl)-1,3,5-triazine] | 74.2 | 60.9 | -2.64 | 91.8 |  | 1870 ± 91.2 | 88.2 | 144 | 2110 | 2470 | 3330 | 1340 | 690 | 2860
CN(C)c1ccc(/C=N/Nc2nc(N/N=C/c3ccc(N(C)C)cc3)nc(N3CCCCC3)n2)cc1 [compound 7g, 4-[(1e)-(2-{4-[(E)-2-{[4-(dimethylamino)phenyl]methylidene}chydrazin-1-yl]-6-(piperidin-1-yl)-1,3,5-triazin-2-yl}hydrazin-1-ylidene)methyl]-N,N-dimethylaniline] | 67.6 | -4.45 | -1.39 | 105 |  | 505 ± 24.7 | 96.9 | 167 | 2680 | 1830 | 2800 | 1760 | 890 | 1860
Fc1cccc(Cl)c1/C=N/Nc1nc(N/N=C/c2c(F)cccc2Cl)nc(N2CCCCC2)n1 [compound 7l, 2,4-Bis[(E)-2-[(2-Chloro-6-fluorophenyl)methylidene]hydrazin-1-yl]-6-(piperidin-1-yl)-1,3,5-triazine] | 95.8 | 88.3 | 62.5 | 96.5 | 9500 ± 370 | 160 ± 7.81 | 67.7 | 95.8 | 3040 | 2390 | 2360 | 2900 | 3080 | 2210
Fc1cccc(Cl)c1/C=N/Nc1nc(N/N=C/c2c(F)cccc2Cl)nc(N2CCOCC2)n1 [compound 6l, 2,4-Bis[(E)-2-[(2-Chloro-6-fluorophenyl)methylidene]hydrazin-1-yl]-6-(morpholin-4-yl)-1,3,5-triazine] | 7.67 | 17 | 9.55 | 30.6 | 3440 ± 130 | 158 ± 7.72 | 43 | 16 |  |  |  |  |  | 
Brc1cccc(/C=N/Nc2nc(N/N=C/c3cccc(Br)c3)nc(N3CCCCC3)n2)c1 [compound 7c, 2,4-Bis[(E)-2-[(3-Bromophenyl)methylidene]hydrazin-1-yl]-6-(piperidin-1-yl)-1,3,5-triazine] | -5.5 | -4.98 | -17.3 | 3.98 | 3130 ± 120 | 88.9 ± 4.34 | 11.2 | 15.1 |  |  |  |  |  | 
CN(C)c1ccc(/C=N/Nc2nc(N/N=C/c3ccc(N(C)C)cc3)nc(N3CCOCC3)n2)cc1 [compound 6g, 4-[(1e)-(2-{4-[(E)-2-{[4-(dimethylamino)phenyl]methylidene}hydrazin-1-yl]-6-(morpholin-4-yl)-1,3,5-triazin-2-yl}hydrazin-1-ylidene)methyl]-N,N-dimethylaniline] | -4.23 | -2.69 | 12.6 | -1.91 |  | 336 ± 16.4 | 93.7 | -14.2 |  |  |  |  |  | 
Fc1cccc(/C=N/Nc2nc(N/N=C/c3cccc(F)c3)nc(N3CCOCC3)n2)c1 [compound 6e, 2,4-Bis[(E)-2-[(3-Fluorophenyl)methylidene]hydrazin-1-yl]-6-(morpholin-4-yl)-1,3,5-triazine] | 20.9 | 6.59 | 18.3 | 53.5 | 2300 ± 90 | 67 ± 3.27 | 35.3 | -44 |  |  |  |  |  | 
Oc1ccccc1/C=N/Nc1nc(N/N=C/c2ccccc2O)nc(N2CCCCC2)n1 [compound 7a, 2-[(1e)-(2-{4-[(E)-2-[(2-Hydroxyphenyl)methylidene]hydrazin-1-yl]-6-(piperidin-1-yl)-1,3,5-triazin-2-yl}hydrazin-1-ylidene)methyl] phenol] | 63.1 | 20.9 | 25.6 | 54.7 | 5420 ± 210 | 130 ± 6.35 | 61.8 | 33.1 |  |  |  |  |  | 

From PMC9848300, “Discovery of novel enasidenib analogues targeting inhibition of mutant isocitrate dehydrogenase 2 as antileukaemic agents” (Journal of Enzyme Inhibition and Medicinal Chemistry, 2023)
